Experimental data published in patent US4248880A, “Treatment of gastric ulcers with naphthimidazole derivatives” (Hoffmann-La Roche Inc., priority 1977, dated 1981).

What was measured:
[1] = system: gastric acid secretion; experiment: inhibition of 4-methylhistamine-stimulated gastric acid secretion in the conscious Heidenhain pouch dog; type: in vivo; conditions: Canis lupus familiaris, oral, 4-methylhistamine dihydrochloride infusion i.v., read-out: effective therapeutic dosage (per os amount causing 60-80% inhibition of acid secretion produced by 4-methylhistamine)
From the text: A part of the stomach fundus of dogs is separated from the remaining stomach in the form of a pouch according to the Heidenhain technique described by Rudick et al in J. Surgical Research, vol. 7, pp 383-398 (1967). The pouch is fitted with a steel canula conducted externally through the abdominal wall and the operation is allowed to heal. Utilizing a conscious dog prepared as above, gastric secretion is stimulated by an infusion of 4-methylhistaminedihydrochloride (40 μ/kg per hr., i.v.) which selectively stimulates histamine H2 receptors. When volumes of fifteen minute samples of gastric secretion and pH levels appear constant, the test substance is administered orally and samples again taken. […] In the context of this procedure, an effective therapeutic dosage may be defined as the amount of test substance administered per os which causes an inhibition of from 60-80% of the acid secretion produced by the administration of 4-methylhistamine.

[2] = system: stress-induced gastric ulcers; experiment: inhibition of the formation of stress-induced gastric ulcers in rats (water bath); type: in vivo; conditions: Rattus norvegicus, po, 6 h; female rats 140 to 160 g; per os; water bath 22.5° C. for six hours; 10 rats per dosage; Probit method; read-out: ED50 (effective dosage at which 50% of the rats are protected against stress-induced ulcers)
Experimental: After six hours in the water, the animals were sacrificed and the incidence of ulcers noted. The ED50, that is, the dosage at which 50% of the 10 rats utilized per dosage are protected against stress-induced ulcers by the test compound was then determined according to the Probit method.

[3] = LD50 in the mouse; conditions: in vivo, po, per os

Row | SMILES | ED (60-80) [1] [mg/kg] | ED50 [2] [mg/kg] | LD50 [3] [mg/kg]
1 | Cc1ccc(CSc2nc3cc4ccccc4cc3[nH]2)nc1 [2-/[(5-methyl-2-pyridyl)-methyl]thio/-1H-naphth[2,3-d]imidazole] | ~3 | 31 | 8000
2 | c1ccc(CSc2nc3cc4ccccc4cc3[nH]2)nc1 [2-[(2-pyridylmethyl)thio]-1H-naphth[2,3-d]imidazole] | ~3 | 12 | > 5000
